According to patent publication US10577363B2, “Substituted piperidine compounds” (EPIZYME, INC., priority 2014, dated 2020):

What was measured:
SMYD3 [1] = biological target: T1, SMYD3 (Homo sapiens (Human), UniProt Q9H7B4); test: SMYD3 biochemical assay (SPA, 3H-SAM methylation of MEKK2 protein substrate); conditions: read-out: SMYD3 Biochem IC50
How it was run: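 Native full-length human SMYD3 (E. coli-expressed, tags removed) was preincubated with compound for 30 min at room temperature in 25 mM Tris-Cl pH 8.0, 1 mM TCEP, 0.005% BSG, 0.005% Tween 20. Reaction was started with 3H-SAM plus GST-MEKK2, quenched with 100 uM unlabeled SAM, and read by SPA scintillation counting.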

SMYD3 [2] = biological target: T1, SMYD3; test: SMYD3 cell assay (Trimethyl-MEKK2 In-Cell Western in 293T/17 cells); type: cell-based; conditions: read-out: SMYD3 Cell IC50
How it was run: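 In-Cell Western ratio of trimethyl-Lys260 MEKK2 to anti-flag signal; percent inhibition from DMSO and maximum-inhibition controls, IC50 by non-linear regression, triplicates.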

T1 sequence (Q9H7B4 whole entry): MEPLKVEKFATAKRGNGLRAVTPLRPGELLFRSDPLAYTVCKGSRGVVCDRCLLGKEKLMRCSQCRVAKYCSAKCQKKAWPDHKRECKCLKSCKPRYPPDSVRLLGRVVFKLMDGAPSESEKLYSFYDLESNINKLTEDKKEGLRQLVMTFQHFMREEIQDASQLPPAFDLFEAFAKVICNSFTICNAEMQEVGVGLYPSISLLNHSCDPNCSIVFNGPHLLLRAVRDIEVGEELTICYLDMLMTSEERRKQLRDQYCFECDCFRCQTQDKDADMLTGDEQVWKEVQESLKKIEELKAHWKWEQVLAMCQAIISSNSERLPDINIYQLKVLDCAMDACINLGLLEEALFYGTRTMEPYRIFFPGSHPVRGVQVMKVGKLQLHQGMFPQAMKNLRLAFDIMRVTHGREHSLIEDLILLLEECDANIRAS

SMILES	IC50 (SMYD3 [1]; Table 2A) [nM]	IC50 (SMYD3 [2]; Table 2A) [nM]	IC50 (SMYD3 [1]; average of n = 1 to n = 50) [nM]	IC50 (SMYD3 [2]; average of n = 1 to n = 50) [nM]
CC(C)N1CCC(CS(=O)(=O)N2CC[C@@H](NC(=O)c3cc(C4CC4)on3)C[C@H]2C)CC1 [compound 607, 5-cyclopropyl-N-((2R,4R)-1-(((1-isopropylpiperidin-4-yl)methyl)sulfonyl)-2-methylpiperidin-4-yl)isoxazole-3-carboxamide]	17.8	1170		
C[C@H]1CN(S(=O)(=O)CC2CCN(CCCO)CC2)CC[C@H]1NC(=O)c1cc(C2CC2)on1 [compound 608, 5-cyclopropyl-N-((3S,4R)-1-(((1-(3-hydroxypropyl)piperidin-4-yl)methyl)sulfonyl)-3-methylpiperidin-4-yl)isoxazole-3-carboxamide]	17.8	225		
C[C@H]1C[C@@H](NC(=O)c2cc(C3CC3)on2)CCN1S(=O)(=O)CCCNCc1cccc(C(F)(F)F)c1 [compound 609, 5-cyclopropyl-N-((2S,4S)-2-methyl-1-((3-((3-(trifluoromethyl)benzyl)amino)propyl)sulfonyl)piperidin-4-yl)isoxazole-3-carboxamide]	18.8	451		
CN(C)CCN(C)CCCS(=O)(=O)N1[C@@H]2CC[C@H]1C[C@@H](NC(=O)c1cc(C3CC3)on1)C2 [compound 610, 5-cyclopropyl-N-((1R,3r,5S)-8-((3-((2-(dimethylamino)ethyl)(methyl)amino)propyl)sulfonyl)-8-azabicyclo[3.2.1]octan-3-yl)isoxazole-3-carboxamide]	19.4	332		
CC(C)CN1CCC(CS(=O)(=O)N2CC[C@@H](NC(=O)c3cc(C4CC4)on3)C[C@H]2C)CC1 [compound 611, 5-cyclopropyl-N-((2R,4R)-1-(((1-isobutylpiperidin-4-yl)methyl)sulfonyl)-2-methylpiperidin-4-yl)isoxazole-3-carboxamide]	20	1030		
C[C@H]1C[C@@H](NC(=O)c2cc(C3CC3)on2)CCN1S(=O)(=O)CCCNCC1CCCCC1 [compound 612, N-((2S,4S)-1-((3-((cyclohexylmethyl)amino)propyl)sulfonyl)-2-methylpiperidin-4-yl)-5-cyclopropylisoxazole-3-carboxamide]	20.7	217		
C[C@H]1CN(S(=O)(=O)CC2CCN(CCCC(F)(F)F)CC2)CC[C@H]1NC(=O)c1cc(C2CC2)on1 [compound 613, 5-cyclopropyl-N-((3S,4R)-3-methyl-1-(((1-(4,4,4-trifluorobutyl)piperidin-4-yl)methyl)sulfonyl)piperidin-4-yl)isoxazole-3-carboxamide]	20.9	212		
C[C@H]1CN(S(=O)(=O)N2CCC(NCc3ccccc3)CC2)CC[C@H]1NC(=O)c1cc(C2CC2)on1 [compound 614, N-((3S,4R)-1-((4-(benzylamino)piperidin-1-yl)sulfonyl)-3-methylpiperidin-4-yl)-5-cyclopropylisoxazole-3-carboxamide]	21.2	304		
C[C@H]1C[C@@H](NC(=O)c2cc(C3CC3)on2)CCN1S(=O)(=O)N1C2CCC1CNC2 [compound 615, N-((2S,4S)-1-((3,8-diazabicyclo[3.2.1]octan-8-yl)sulfonyl)-2-methylpiperidin-4-yl)-5-cyclopropylisoxazole-3-carboxamide]	21.7	233		
C[C@@H]1C[C@H](NC(=O)c2cc(C3CC3)on2)CCN1C(=O)c1ccc(C2CCCNC2)cc1 (stereo partly drawn) [compound 616, 5-cyclopropyl-N-((2R,4R)-2-methyl-1-(4-(piperidin-3-yl)benzoyl)piperidin-4-yl)isoxazole-3-carboxamide]	21.9	595		
CCN1CCN(S(=O)(=O)N2CC[C@H](NC(=O)c3cc(C4CC4)on3)C[C@@H]2C)CC1 [compound 617, 5-cyclopropyl-N-((2S,4S)-1-((4-ethylpiperazin-1-yl)sulfonyl)-2-methylpiperidin-4-yl)isoxazole-3-carboxamide]	22.8	183		
C[C@H]1CN(S(=O)(=O)CC2CCNCC2)CC[C@H]1NC(=O)c1cc(C2CC2)on1 [compound 618, 5-cyclopropyl-N-((3S,4R)-3-methyl-1-((piperidin-4-ylmethyl)sulfonyl)piperidin-4-yl)isoxazole-3-carboxamide]	23.2	220		
O=C(N[C@H]1C[C@H]2CC[C@@H](C1)N2S(=O)(=O)CC1CCN(CCN2CCOCC2)CC1)c1cc(C2CC2)on1 [compound 619, 5-cyclopropyl-N-((1R,3r,5S)-8-(((1-(2-morpholinoethyl)piperidin-4-yl)methyl)sulfonyl)-8-azabicyclo[3.2.1]octan-3-yl)isoxazole-3-carboxamide]	23.2	592		
CNCCN(C)CCS(=O)(=O)N1[C@@H]2CC[C@H]1C[C@@H](NC(=O)c1cc(C3CC3)on1)C2 [compound 620, 5-cyclopropyl-N-((1R,3r,5S)-8-((2-(methyl(2-(methylamino)ethyl)amino)ethyl)sulfonyl)-8-azabicyclo[3.2.1]octan-3-yl)isoxazole-3-carboxamide]	23.3	339		
C[C@H]1CN(S(=O)(=O)N2CCNCC2)CC[C@H]1NC(=O)c1cc(C2CC2)on1 [compound 621, 5-cyclopropyl-N-((3S,4R)-3-methyl-1-(piperazin-1-ylsulfonyl)piperidin-4-yl)isoxazole-3-carboxamide]	23.4	223		
CNCCN(C)CCCS(=O)(=O)N1[C@@H]2CC[C@H]1C[C@@H](NC(=O)c1cc(C3CC3)on1)C2 [compound 622, 5-cyclopropyl-N-((1R,3r,5S)-8-((3-(methyl(2-(methylamino)ethyl)amino)propyl)sulfonyl)-8-azabicyclo[3.2.1]octan-3-yl)isoxazole-3-carboxamide]	23.4	464		
C[C@H]1CN(S(=O)(=O)CC2CCN(CCO)CC2)CC[C@H]1NC(=O)c1cc(C2CC2)on1 [compound 623, 5-cyclopropyl-N-((3S,4R)-1-(((1-(2-hydroxyethyl)piperidin-4-yl)methyl)sulfonyl)-3-methylpiperidin-4-yl)isoxazole-3-carboxamide]	23.7	231		
C[C@H]1CNCCN1S(=O)(=O)N1CC[C@H](NC(=O)c2cc(C3CC3)on2)C[C@@H]1C [compound 624, 5-cyclopropyl-N-((2S,4S)-2-methyl-1-(((S)-2-methylpiperazin-1-yl)sulfonyl)piperidin-4-yl)isoxazole-3-carboxamide]	24.6	284		
C[C@H]1CN(S(=O)(=O)CC2CCN(C)CC2)CC[C@H]1NC(=O)c1cc(C2CC2)on1 [compound 625, 5-cyclopropyl-N-((3S,4R)-3-methyl-1-(((1-methylpiperidin-4-yl)methyl)sulfonyl)piperidin-4-yl)isoxazole-3-carboxamide]	25.3	224		
C[C@H]1C[C@@H](NC(=O)c2cc(C3CC3)on2)CCN1S(=O)(=O)N1C[C@H]2C[C@@H]1CN2C [compound 626, 5-cyclopropyl-N-((2S,4S)-2-methyl-1-(((1R,4R)-5-methyl-2,5-diazabicyclo[2.2.1]heptan-2-yl)sulfonyl)piperidin-4-yl)isoxazole-3-carboxamide]	25.3	157		
C[C@H]1CN(S(=O)(=O)c2ccc(C(C)(C)N)cc2)CC[C@H]1NC(=O)c1cc(C2CC2)on1 [compound 627, N-((3S,4R)-1-((4-(2-aminopropan-2-yl)phenyl)sulfonyl)-3-methylpiperidin-4-yl)-5-cyclopropylisoxazole-3-carboxamide]			26.5	243
C[C@H]1CN(S(=O)(=O)CCCNCc2ccccc2)[C@@H](C)C[C@H]1NC(=O)c1cc(C2CC2)on1 [compound 628, N-((2S,4R,5S)-1-((3-(benzylamino)propyl)sulfonyl)-2,5-dimethylpiperidin-4-yl)-5-cyclopropylisoxazole-3-carboxamide]			27.3	577
C[C@@H]1CN(S(=O)(=O)CC2CCNCC2)[C@H](C)C[C@@H]1NC(=O)c1cc(C2CC2)on1 [compound 629, 5-cyclopropyl-N-((2R,4S,5R)-2,5-dimethyl-1-((piperidin-4-ylmethyl)sulfonyl)piperidin-4-yl)isoxazole-3-carboxamide]			28.2	407
C[C@H]1C[C@@H](NC(=O)c2cc(C3CC3)on2)CCN1S(=O)(=O)CCCNCC1CC1 [compound 630, 5-cyclopropyl-N-((2S,4S)-1-((3-((cyclopropylmethyl)amino)propyl)sulfonyl)-2-methylpiperidin-4-yl)isoxazole-3-carboxamide]			29.4	396
C[C@H]1C[C@@H](NC(=O)c2cc(C3CC3)on2)CCN1S(=O)(=O)N1CC2CCC1CN2C (stereo partly drawn) [compound 631, 5-cyclopropyl-N-((2S,4S)-2-methyl-1-((5-methyl-2,5-diazabicyclo[2.2.2]octan-2-yl)sulfonyl)piperidin-4-yl)isoxazole-3-carboxamide]			29.8	298
C[C@H]1CN(S(=O)(=O)CC2CCNCC2)[C@@H](C)C[C@H]1NC(=O)c1cc(C2CC2)on1 [compound 632, 5-cyclopropyl-N-((2S,4R,5S)-2,5-dimethyl-1-((piperidin-4-ylmethyl)sulfonyl)piperidin-4-yl)isoxazole-3-carboxamide]			30.4	229
CC(C)NCCCS(=O)(=O)N1CC[C@H](NC(=O)c2cc(C3CC3)on2)C[C@@H]1C [compound 633, 5-cyclopropyl-N-((2S,4S)-1-((3-(isopropylamino)propyl)sulfonyl)-2-methylpiperidin-4-yl)isoxazole-3-carboxamide]			30.4	291
